# Assay results from ChEMBL document CHEMBL1150587, “Evaluation of the potential cancer chemotherapeutic efficacy of natural product isolates employing in vivo hollow fiber tests” (J Nat Prod, 2002).
# Calls of active or inactive are those of the source. No cut-off for these calls is given here.
# What was measured:
# LNCaP [1] = test: Growth inhibition of human LNCAP cells implanted subcutaneously to NCr nu/nu mouse at 7.13 to 28.5 umol/kg, ip administered from day 3 to 6 after implantation measured on day 7 by MTT-based hollow-fiber test; type: functional
# Mus musculus [2] = test: Toxicity in tumor cell implanted NCr nu/nu mouse assessed as body weight change at 28.5 umol/kg, ip administered from day 3 to 6 after implantation measured on day 7; type: organism-based; conditions: in vivo
# LNCaP [3] = test: Cytotoxicity against human LNCAP cells after 72 hrs by SRB assay; type: functional, cell-based
# Mus musculus [4] = test: Toxicity in tumor-implanted NCr nu/nu mouse at 57.5 umol/kg, ip administered from day 3 to 6 after implantation measured on day 7 by hollow-fiber test; type: organism-based; conditions: in vivo
# Mus musculus [5] = test: Toxicity in tumor cell implanted NCr nu/nu mouse assessed as body weight change at 7.13 umol/kg, ip administered from day 3 to 6 after implantation measured on day 7; type: organism-based; conditions: in vivo
# P388 [6] = test: Growth inhibition of mouse P388 cells implanted intraperitoneally to NCr nu/nu mouse at 7.13 to 28.5 umol/kg, ip administered from day 3 to 6 after implantation measured on day 7 by MTT-based hollow-fiber test; type: functional
# SK-MEL-2 [7] = test: Growth inhibition of human SK-MEL-2 cells implanted intraperitoneally to NCr nu/nu mouse at 7.13 to 28.5 umol/kg, ip administered from day 3 to 6 after implantation measured on day 7 by MTT-based hollow-fiber test; type: functional
# SW626 [8] = test: Cytotoxicity against human SW626 cells after 72 hrs by SRB assay; type: functional, cell-based; conditions: SW626, 72 h
# Col2 = test: Cytotoxicity against human Col2 cells after 72 hrs by SRB assay; type: functional, cell-based; conditions: Col2, 72 h
# Mus musculus [9] = test: Toxicity in tumor cell implanted NCr nu/nu mouse assessed as body weight change at 14.3 umol/kg, ip administered from day 3 to 6 after implantation measured on day 7; type: organism-based; conditions: in vivo
# SK-MEL-2 [10] = test: Growth inhibition of human SK-MEL-2 cells implanted subcutaneously to NCr nu/nu mouse at 7.13 to 28.5 umol/kg, ip administered from day 3 to 6 after implantation measured on day 7 by MTT-based hollow-fiber test; type: functional
# MCF7 [11] = test: Cytotoxicity against human MCF7 cells after 72 hrs by SRB assay; conditions: MCF7, 72 h
# Lu1 [12] = test: Growth inhibition of human Lu1 cells implanted subcutaneously to NCr nu/nu mouse at 7.13 to 28.5 umol/kg, ip administered from day 3 to 6 after implantation measured on day 7 by MTT-based hollow-fiber test; type: functional
# MCF7 [13] = test: Growth inhibition of human MCF7 cells implanted intraperitoneally to NCr nu/nu mouse at 7.13 to 28.5 umol/kg, ip administered from day 3 to 6 after implantation measured on day 7 by MTT-based hollow-fiber test; type: functional
# P388 [14] = test: Growth inhibition of mouse P388 cells implanted subcutaneously to NCr nu/nu mouse at 7.13 to 28.5 umol/kg, ip administered from day 3 to 6 after implantation measured on day 7 by MTT-based hollow-fiber test; type: functional
# SW626 [15] = test: Growth inhibition of human SW626 cells implanted intraperitoneally to NCr nu/nu mouse at 7.13 to 28.5 umol/kg, ip administered from day 3 to 6 after implantation measured on day 7 by MTT-based hollow-fiber test; type: functional
# KB [16] = test: Growth inhibition of human KB cells implanted intraperitoneally to NCr nu/nu mouse at 7.13 to 28.5 umol/kg, ip administered from day 3 to 6 after implantation measured on day 7 by MTT-based hollow-fiber test; type: functional
# Mus musculus [17] = test: Toxicity in NCr nu/nu mouse subcutaneously implanted with human KB cells assessed as mortality at 7.13 umol/kg, ip administered on day 10, 13, 16, 20 of implantation; type: organism-based; conditions: in vivo
# [18] = Cytotoxicity against human KBV1 cells after 72 hrs by SRB assay; type: functional, cell-based; conditions: KB-V1, 72 h
# Mus musculus [19] = test: Toxicity in NCr nu/nu mouse subcutaneously implanted with human KB cells assessed as change in body weight at 7.13 umol/kg, ip administered on day 10, 13, 16, 20 of implantation; type: organism-based; conditions: in vivo
# Lu1 [20] = test: Cytotoxicity against human Lu1 cells after 72 hrs by SRB assay; type: functional, cell-based; conditions: Lu1, 72 h
# Mus musculus [21] = test: Toxicity in NCr nu/nu mouse subcutaneously implanted with human KB cells assessed as mortality at 28.5 umol/kg, ip administered on day 10, 13, 16, 20 of implantation; type: organism-based; conditions: in vivo
# P388 [22] = test: Cytotoxicity against mouse P388 cells after 72 hrs by SRB assay; type: functional, cell-based; conditions: P388, 72 h
# LNCaP [23] = test: Growth inhibition of human LNCAP cells implanted intraperitoneally to NCr nu/nu mouse at 7.13 to 28.5 umol/kg, ip administered from day 3 to 6 after implantation measured on day 7 by MTT-based hollow-fiber test; type: functional
# Mus musculus [24] = test: Toxicity in NCr nu/nu mouse subcutaneously implanted with human KB cells assessed as mortality at 14.3 umol/kg, ip administered on day 10, 13, 16, 20 of implantation; type: organism-based; conditions: in vivo
# SK-MEL-2 [25] = test: Cytotoxicity against human SK-MEL-2 cells after 72 hrs by SRB assay; type: functional, cell-based; conditions: SK-MEL-2, 72 h
# SW626 [26] = test: Growth inhibition of human SW626 cells implanted subcutaneously to NCr nu/nu mouse at 7.13 to 28.5 umol/kg, ip administered from day 3 to 6 after implantation measured on day 7 by MTT-based hollow-fiber test; type: functional
# Lu1 [27] = test: Growth inhibition of human Lu1 cells implanted intraperitoneally to NCr nu/nu mouse at 7.13 to 28.5 umol/kg, ip administered from day 3 to 6 after implantation measured on day 7 by MTT-based hollow-fiber test; type: functional
# MCF7 [28] = test: Growth inhibition of human MCF7 cells implanted subcutaneously to NCr nu/nu mouse at 7.13 to 28.5 umol/kg, ip administered from day 3 to 6 after implantation measured on day 7 by MTT-based hollow-fiber test; type: functional
# KB [29] = test: Growth inhibition of human KB cells implanted subcutaneously to NCr nu/nu mouse assessed as tumor size at 7.13 to 72.6 umol/kg, ip administered on day 10, 13, 16, 20 of implantation; type: functional, organism-based
# [30] = Cytotoxicity against human BC1 cells after 72 hrs by SRB assay; conditions: BC1, 72 h
# Mus musculus [31] = test: Toxicity in NCr nu/nu mouse subcutaneously implanted with human KB cells assessed as change in body weight at 14.3 umol/kg, ip administered on day 10, 13, 16, 20 of implantation; type: organism-based; conditions: in vivo
# Mus musculus [32] = test: Toxicity in tumor-implanted NCr nu/nu mouse at 144 umol/kg, ip administered from day 3 to 6 after implantation measured on day 7 by hollow-fiber test; type: organism-based; conditions: in vivo
# KB [33] = test: Cytotoxicity against human KB cells after 72 hrs by SRB assay; type: functional, cell-based
# LNCaP [34] = test: Growth inhibition of ip dosed intraperitoneally implanted human LNCAP cells to NCr nu/nu mouse administered from day 3 to 6 after implantation measured on day 7 by MTT-based hollow-fiber test; type: functional, organism-based
# Mus musculus [35] = test: Toxicity in NCr nu/nu mouse subcutaneously implanted with human KB cells assessed as change in body weight at 28.5 umol/kg, ip administered on day 10, 13, 16, 20 of implantation; type: organism-based; conditions: in vivo
# KB [36] = test: Growth inhibition of human KB cells implanted subcutaneously to NCr nu/nu mouse at 7.13 to 28.5 umol/kg, ip administered from day 3 to 6 after implantation measured on day 7 by MTT-based hollow-fiber test; type: functional
# Lu1 [37] = test: Growth inhibition of ip dosed intraperitoneally implanted human Lu1 cells to NCr nu/nu mouse administered from day 3 to 6 after implantation measured on day 7 by MTT-based hollow-fiber test; type: functional, organism-based
smiles,measurement,setting,value
C[C@@H]1CC[C@@]2(OC1)O[C@H]1C[C@H]3[C@@H]4CC=C5C[C@@H](O[C@@H]6O[C@H](CO)[C@@H](O[C@@H]7O[C@@H](C)[C@H](O)[C@@H](O)[C@H]7O)[C@H](O)[C@H]6O[C@@H]6O[C@@H](C)[C@H](O)[C@@H](O)[C@H]6O)CC[C@]5(C)[C@H]4CC[C@]3(C)[C@H]1[C@@H]2C [DIOSCIN],inhibition (INH),LNCaP [1],35.9%
same,Activity,Mus musculus [2],-0.65 g
same,IC50,LNCaP [3],1.7 µM
same,Activity,Mus musculus [4],Toxic
same,Activity,Mus musculus [5],0.8 g
same,inhibition (INH),P388 [6],0%
same,inhibition (INH),SK-MEL-2 [7],2.3%
same,IC50,SW626 [8],3.1 µM
same,IC50,Col2,2.8 µM
same,Activity,Mus musculus [9],0.45 g
same,inhibition (INH),SK-MEL-2 [10],0%
same,IC50,MCF7 [11],22.4 µM
same,inhibition (INH),Lu1 [12],0%
same,inhibition (INH),MCF7 [13],0%
same,inhibition (INH),P388 [14],0%
same,inhibition (INH),SW626 [15],4.1%
same,inhibition (INH),KB [16],79%
same,Activity,Mus musculus [17],Non-toxic
same,IC50,[18],> 23 µM
same,Activity,Mus musculus [19],7.1%
same,IC50,Lu1 [20],1.2 µM
same,Activity,Mus musculus [21],Non-toxic
same,IC50,P388 [22],21.9 µM
same,inhibition (INH),LNCaP [23],36.9%
same,Activity,Mus musculus [24],Non-toxic
same,IC50,SK-MEL-2 [25],1.8 µM
same,inhibition (INH),SW626 [26],8.7%
same,inhibition (INH),Lu1 [27],24.6%
same,inhibition (INH),MCF7 [28],7.3%
same,Activity,KB [29],inactive
same,IC50,[30],3.8 µM
same,Activity,Mus musculus [31],8.4%
same,Activity,Mus musculus [32],Toxic
same,IC50,KB [33],20.7 µM
same,Activity,LNCaP [34],Dose-dependent effect
same,Activity,Mus musculus [35],8.6%
same,inhibition (INH),KB [36],3.6%
same,Activity,Lu1 [37],Dose-dependent effect
